From patent US5670520A, “Method for inhibiting virus replication in mammalian cells using carbostyil derivatives” (Otsuka Pharmaceutical Co., Ltd., priority 1996, dated 1997)
In brackets after ≈: the same amount, converted by molar mass.

What was measured:
[1] = tested on: CHO cells; assay: Rapid uptake of [3H]thymidine / [3H]AZT in CHO cells; conditions: 0-250 μM vesnarinone, 1 min
Method: Then, 1.0 μCi/ml of [^3 H]thymidine (6.7 Ci/mmol) or 1.0 μCi/ml of [^3 H]AZT (14 Ci/mmol) was added, and the mixture was immediately layered on silicone oil/paraffin oil (96:6) in microfuge tubes. […] The water and oil phases were discarded, and radioactivity of the cell pellets was measured using liquid scintillation counting.

[2] = tested on: U937 cells; assay: Intracellular AZT-MP, AZT-DP, AZT-TP in U937 cells by HPLC; conditions: vesnarinone 75 μM (30 μg/ml); [3H]AZT 2 hr
Method: 1.0 ml fractions were collected, and the radioactivity was measured by liquid scintillation. The retention time for AZT and AZT-MP was confirmed using cold AZT and AZT-MP (Sigma) under the same conditions.
Intracellular concentrations of [^3 H]AZT-MP, [^3 H]AZT-DP, and [^3 H]AZT-TP were measured using HPLC as described above.

[3] = some patients; cited from earlier work
[4] = tested on: CMV strain AD169; assay: CMV plaque reduction assay in MRC5 cells; format: cell-based; conditions: Human betaherpesvirus 5, AD169, MRC5, 168 h
Method: More specifically, subconfluent monolayers of MRC5 cells (Biowhittaker, Walkersville, Md.) in 12-well tissue culture plates were exposed to a suspension of a 1:500 dilution of stock virus (CMV strain AD169; ATCC No. VR-538) in Eagles Minimal Essential Medium (MEM) supplemented with 2.0% (v/v) fetal bovine serum, for 2 hr at 37° C. to allow for virus absorption. The fluid containing unabsorbed virus was then removed, and the cell layer rinsed with Eagles MEM without serum.
The minimum compound concentration that reduces plaque production by 50% (MIC50) was calculated from single compound assays by using a regression analysis program for semilog curve fitting.
The following formula of additivity, which is appropriate for inhibitors affecting different sites, was used.

[5] = tested on: Akata, P3HR1, Jijoye, Raji; assay: Cell growth of Burkitt's lymphoma cell lines, 7 days; format: cell-based; conditions: Homo sapiens, Burkitts lymphoma cell, 168 h; read-out: cell growth (cell numbers) relative to control cultures
[6] = tested on: Raji cells; assay: [3H]adenosine / [3H]adenine transport in Raji cells; conditions: 0-750 μM vesnarinone or 0-100 μM dipyridamole, 1 min pulse
[7] = tested on: CHO cells; assay: Rescue of CHO cells from cytostatic effects of 5-FUd; format: cell-based, Chinese hamster; conditions: 50 nM 5-FUd, 120 hrs; 0-250 μM vesnarinone or 1.0-10 μM dipyridamole
Excerpt: Nucleoside transport inhibitors, such as dipyridamole or NBMPR, are known to rescue cell proliferation from the cytotoxic effects of 5-fluorouridine(5-FUd) or high dose thymidine, by inhibiting transport of this cytotoxic nucleoside analog or thymidine (Aronow et al, Mol. Cell Biol., 6:2957-2962 (1986)).

[8] = tested on: PHA-activated human T lymphocytes; assay: Accumulation of phosphorylated [3H]thymidine / [3H]AZT in PHA-activated human T lymphocytes; format: cell-based; conditions: 0, 75 or 250 μM vesnarinone; 0-120 min
Excerpt: Similar results were obtained when using U937 cells, in place of the PHA-activated human T lymphocytes.

[9] = cited from earlier work
[10] = tested on: thymidine kinase; assay: Thymidine kinase activity in extracts of treated Akata cells; format: cell-based; conditions: 100 μg/ml vesnarinone
Method: The pellet of frozen cells was suspended in 100 μl of kinase extraction buffer comprising 50 mM Tris (pH 8.0), 50 mM KCl, 1.0 mM MgCl2, 1.0 mM ATP, 1.0 mM DTT, 5.0% (v/v) glycerol, 80 μg/ml aprotinin, 40 μM leupeptin and 1.0 mM PMSF, and incubated on ice for 30 min after a brief sonication. The nuclei were removed by high speed centrifugation for 15 min and the supernatant (kinase extract) was aliquoted and stored at -70° C. The protein concentration of the kinase extract (about 4.0 mg/ml) was determined using standard Bradford Reagent (Bio-Rad Protein Assay Kit, Bio-Rad Laboratories, Hercules, Calif.), with BSA as a protein standard.
5.0 μl of the kinase extract was incubated at 37° C. with 35 µl of kinase reaction buffer comprising 150 mM phosphate (pH 7.5), 20 mM ATP, 20 mM MgCl2, 40 mM KCl, 1.0 mM DTT, 10 mM NaF and 20 μM [^3 H]thymidine (6.7 Ci/mmole, ICN) for 5 or 15 min. The reaction was terminated by placing on ice, and an addition of 4.0 μl of 0.5M EDTA (pH 8.0). […]
The amount of phosphorylated [^3 H]thymidine derivatives formed during the reaction was determined by applying the reaction mixtures onto Whatman DE-81 paper filters, which were then washed four times in 1.0 mM ammoniumformate (pH 8.0), and once in ethanol before drying and liquid scintillation counting. […]

[11] = tested on: U937 cells; assay: [3H]thymidine uptake in U937 cells within 1 min; format: cell-based, human; conditions: 0-250 μM vesnarinone or 0-1000 nM dipyridamole
Method: Dipyridamole was prepared as a 50 mM stock solution dissolved in ethanol.

Compound: COc1ccc(C(=O)N2CCN(c3ccc4c(c3)CCC(=O)N4)CC2)cc1OC [vesnarinone, 3,4-dihydro-6-[4-(3,4-dimethoxybenzoyl)-1-piperazinyl]-2(1H)-quinoline]
- uptake of [3H]AZT [1]: the uptake of [^3 H]AZT was not affected by vesnarinone
- uptake of [3H]thymidine [1]: inhibits the uptake of [^3 H]thymidine in a dose-dependent manner
- increase of intracellular AZT-DP [2]: 45%
- increase of intracellular AZT-MP [2]: 100%
- major side effect in patients [3]: agranulocytosis, a major side effect of vesnarinone observed in some patients
- inhibition at 30 µg/mL ([4]; read-out: efficacy against CMV plaque formation): 91.5%
- EC50 ([4]; single compound assay, regression analysis, read-out: MIC50 (minimum concentration that reduces plaque production by 50%)): 24 µg/mL (≈ 60.7 µM)
- activity at 20 µg/mL [5]: 80 to 90%
- [3H]adenosine and [3H]adenine transport [6]: inhibitory effects on nucleoside and nucleobase transport in vitro were observed within the therapeutic range
- reversal of cytostatic effects of 5-FUd (cell number) [7]: demonstrated a similar ability to rescue the cells in a dose-dependent manner
- accumulation of phosphorylated AZT [8]: augmented the accumulation of phosphorylated AZT
- accumulation of phosphorylated [3H]thymidine [8]: delayed the accumulation of phosphorylated [^3 H]thymidine
- therapeutic range in vivo [9]: 2 to 80 µM
- increase in dTTP-resistant thymidine kinase ([10]; 100 μM dTTP in reaction): partially suppressed by vesnarinone treatment
- increase in whole thymidine kinase activity in anti-IgG treated cells ([10]; without dTTP): partially inhibited in the presence of vesnarinone
- uptake of thymidine [11]: inhibited the uptake of thymidine in a dose-dependent manner
